Assay results from patent publication US20250368633A1, “AZEPINE FUSED RING COMPOUND AS RIPK1 INHIBITOR AND USE THEREOF” (ARTIVILA BIOPHARMA, priority 2022, published 2025).

Key:
RIPK1 kinase = target: T1, RIPK1 kinase (Homo sapiens, UniProt Q13546); test: In vitro RIPK1 kinase activity assay (ADP-Glo), inhibition by compounds at 1 μM; type: biochemical; details: compound 1 μM; ATP 10 μM; MBP substrate 100 μg/mL; read-out: RIPK1 kinase activity inhibition rate range
T1 construct: purchased Promega VA7593
T1 sequence (Q13546 1-671): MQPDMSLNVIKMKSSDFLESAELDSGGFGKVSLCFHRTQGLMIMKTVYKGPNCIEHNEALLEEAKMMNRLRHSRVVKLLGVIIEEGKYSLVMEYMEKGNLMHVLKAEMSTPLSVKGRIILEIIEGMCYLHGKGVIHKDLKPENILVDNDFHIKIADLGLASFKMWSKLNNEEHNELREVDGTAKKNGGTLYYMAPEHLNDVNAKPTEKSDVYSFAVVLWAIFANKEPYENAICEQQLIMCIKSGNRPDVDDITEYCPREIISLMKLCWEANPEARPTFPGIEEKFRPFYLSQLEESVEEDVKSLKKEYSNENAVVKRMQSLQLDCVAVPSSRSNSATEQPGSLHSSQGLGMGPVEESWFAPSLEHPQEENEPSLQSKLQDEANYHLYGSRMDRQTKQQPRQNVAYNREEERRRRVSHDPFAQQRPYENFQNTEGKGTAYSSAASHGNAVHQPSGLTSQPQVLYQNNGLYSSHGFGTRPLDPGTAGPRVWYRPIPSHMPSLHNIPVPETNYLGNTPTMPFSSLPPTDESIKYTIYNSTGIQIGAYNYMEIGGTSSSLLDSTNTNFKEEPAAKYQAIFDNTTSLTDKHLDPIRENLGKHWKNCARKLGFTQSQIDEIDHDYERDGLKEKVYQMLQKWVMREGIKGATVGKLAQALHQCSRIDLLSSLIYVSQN
Description: RIPK1 kinase activity was assayed using the ADP-Glo assay and RIPK1 kinase reaction system (Promega, catalog number: VA7593). The RIPK1 kinase activity assay was performed according to the Promega kit manual.
The experimental method was briefly described as below. The concentration of RIPK1 kinase in the RIPK1 kinase reaction system was determined by kinase titration and S/B10. Compounds were diluted with 1× kinase buffer D (1% DMSO), and 1 μL of 100 μM compound DMSO stock solution was added to 19 μL 1× kinase buffer D. RIPK1 kinase was diluted with 1× kinase buffer D. 2.5×ATP/substrate was diluted with 1× kinase buffer D. The final concentration of ATP in the kinase reaction system was 10 μM, and the final concentration of MBP substrate was 100 μg/mL. 1 μL of diluted compound and 2 μL of diluted RIPK1 kinase were mixed, incubated at room temperature for 15 minutes, 2 μL of 2.5×ATP/substrate was added, mixed, and incubated at room temperature for 1 hour. 5 μL of ADP-Glo reagent was added to each well and incubated at room temperature for 1 hour. 10 μL of ADP detection reagent was added to each well and incubated at room temperature for another 0.5-1 hour. The chemiluminescent signal was read by a microplate reader and the inhibition rate of kinase activity was calculated.

U937 cells [1] = test: Inhibition rate of compound (1 μM) on necroptosis of U937 cells (TSZ-induced, CellTiter-Glo); type: cell-based; details: TSZ (hTNF-α, SM-164, Z-VAD-FMK) 20 hours
Description: (§1) The biological activity of RIPK1 inhibitors was further evaluated in the inhibition of necroptosis in U937 cells. U937 cell line was purchased from Huatuo Biotechnology and stored in liquid nitrogen. U937 cells were revived before the experiment and cultured in RPMI-1640 medium (supplemented with 10% fetal bovine serum, 100 U/mL penicillin and 100 μg/mL streptomycin) at 37° C., 5% CO2. The activity was further evaluated by the cellular ATP level detected by the Promega CellTiter-Glo 2.0 Assay cell viability assay kit (Catalog No.: G9242).
The experimental method was briefly described as below. U937 cells in the logarithmic growth phase were collected by centrifugation. Cells were diluted at the density of 5×10^5 cells/mL with RPMI 1640 medium (supplemented with 10% fetal bovine serum, 100 U/mL penicillin and 100 μg/mL streptomycin). The cell suspension was added to a white sterile 384-well cell culture plate at 15 μL/well. The test compound was dissolved in DMSO to prepare a 10 mM stock solution and diluted to 10 μM with culture medium. At the same time, a control with the same DMSO volume was set up. Two replicates were added for each concentration. The diluted compound was added to the 384-well cell culture plate containing cells at 2.5 µL/well and incubated at 37° C., 5% CO2 for 15 minutes. Z-VAD-FMK (Biyuntian, catalog number: C1202-5 mg) was dissolved in DMSO to prepare a 20 mM stock solution. SM-164 (Biyuntian, catalog number: SC0114-10 mM) was dissolved in DMSO to prepare a 10 mM stock solution and diluted to 0.1 mM. hTNF-α (Sino Biological Inc., catalog number: 10602-HNAE) was dissolved in sterile water to 10 μg/mL. RPMI 1640 medium (supplemented with 10% fetal bovine serum, 100 U/mL penicillin and 100 μg/mL streptomycin) was used to prepare the TSZ mixture, containing 133.3 μM Z-VAD-FMK, 33.3 ng/ml hTNF-α and 0.3 μM SM-164. After 15 minutes' coculture of compounds and cells, 7.5 μL of TSZ mixture was added to each well, mixed evenly, and cultured at 37° C., 5% CO2 for 20 hours. After 20 hours, the culture plate was removed and placed at room temperature for 30 minutes. 10 μL of CellTiter-Glo reagent pre-equilibrated at room temperature was added to each well and incubated for 10 minutes from light. The chemiluminescence was read by a microplate reader. The inhibition rate was calculated as Inh %=(1−(no TSZ-TSZ & compound)/(no TSZ-TSZ))×100.

U937 cells [2] = test: EC50 of necroptosis inhibition in U937 cells (TSZ-induced, CellTiter-Glo); type: cell-based; details: Homo sapiens, U-937; TSZ (hTNF-α, SM-164, Z-VAD-FMK) 20 hours; 10 concentration points; read-out: EC50 intervals of necroptosis inhibition in U937 cells
Description: as §1
The experimental method was briefly described as below. U937 cells in the logarithmic growth phase were collected by centrifugation. Cells were diluted to the cell density of 5×10^5 cells/mL with RPMI 1640 medium (supplemented with 10% fetal bovine serum, 100 U/mL penicillin and 100 μg/mL streptomycin). Cell suspension was added to a white sterile 384-well cell culture plate at 15 μL/well. The test compound was dissolved in DMSO to prepare a 10 mM stock solution. The compound was serially diluted with culture medium at a ratio of 1:3, for a total of 10 concentration points. A control with the same DMSO volume was set, with two replicates for each concentration. The diluted compound was added to the 384-well cell culture plate containing cells at 2.5 μL/well and incubated at 37° C., 5% CO2 for 15 minutes. Z-VAD-FMK (Biyuntian, catalog number: C1202-5 mg) was dissolved in DMSO to prepare a 20 mM stock solution. SM-164 (Biyuntian, catalog number: SC0114-10 mM) was dissolved in DMSO to prepare a 10 mM stock solution and diluted to 0.1 mM. hTNF-α (Sino Biological Inc., catalog number: 10602-HNAE) was dissolved in sterile water to 10 μg/mL. RPMI 1640 medium (supplemented with 10% fetal bovine serum, 100 U/mL penicillin and 100 μg/mL streptomycin) was used to prepare the TSZ mixture, containing 133.3 μM Z-VAD-FMK, 33.3 ng/ml hTNF-α and 0.3 μM SM-164. After 15 minutes' coculture of compounds and cells, 7.5 μL of TSZ mixture was added to each well, mixed evenly, and cultured at 37° C., 5% CO2 for 20 hours. After 20 hours, the culture plate was removed and placed at room temperature for 30 minutes. Then, 10 μL of CellTiter-Glo reagent pre-equilibrated at room temperature was added to each well and incubated. After 10 minutes' incubation at room temperature in the dark, the chemiluminescence were measured using a microplate reader. The inhibition rate was calculated as Inh %=(1−(no TSZ-TSZ & compound)/(no TSZ-TSZ))×100. The EC50 was obtained by fitting the nonlinear regression curve log [inhibitor] vs. response−variable slope (four parameters) in GraphPad Prism.

Structure (SMILES) | inhibition at 1 µM (RIPK1 kinase) [%] | Inhibition rate range of compounds (1 μM) on U937 cell necroptosis (U937 cells [1]) | EC50 (U937 cells [2]) [nM]
CN1C(=O)[C@@H](NC(=O)C(=O)NCCc2ccccc2)COc2ccc(Br)cc21 [Example 1, (S)—N^1-(7-bromo-5-methyl-4-oxo-2,3,4,5-tetrahydrobenzo[b][1,4]oxazepin-3-yl)-N^2-phenethyloxalamide] | 50 to 74 | A (A: ≥90%) | 100 to 500
CN1C(=O)[C@@H](NC(=O)C(=O)NCCc2ccccc2)COc2ccc(C#CC3CC3)cc21 [Example 2, (S)—N^1-(7-(cyclopropylethynyl)-5-methyl-4-oxo-2,3,4,5-tetrahydrobenzo[b][1,4]oxazepin-3-yl)-N^2-phenethyloxalamide] | ≥ 75 | A (A: ≥90%) | < 100
CN1C(=O)[C@@H](NC(=O)C(=O)NCCc2ccccc2)COc2cc(Br)ccc21 [Example 3, (S)—N^1-(8-bromo-5-methyl-4-oxo-2,3,4,5-tetrahydrobenzo[b][1,4]oxazepin-3-yl)-N^2-phenethyloxalamide] | ≥ 75 | A (A: ≥90%) | 500 to 2000
CN1C(=O)[C@@H](NC(=O)C(=O)NCCc2ccccc2)COc2cc(O)ccc21 [Example 5, (S)—N^1-(8-hydroxy-5-methyl-4-oxo-2,3,4,5-tetrahydrobenzo[b][1,4]oxazepin-3-yl)-N^2-phenethyloxalamide] | ≥ 75 | A (A: ≥90%) | 100 to 500
CN1C(=O)[C@@H](NC(=O)C(=O)NCCc2ccccc2)COc2ccc(O)cc21 [Example 6, (S)—N^1-(7-hydroxy-5-methyl-4-oxo-2,3,4,5-tetrahydrobenzo[b][1,4]oxazepin-3-yl)-N^2-phenethyloxalamide] | 50 to 74 | A (A: ≥90%) | 100 to 500

More lines, main results first:

inhibition at 1 µM (RIPK1 kinase) [%] | Structure (SMILES) | Inhibition rate range of compounds (1 μM) on U937 cell necroptosis (U937 cells [1]) | EC50 (U937 cells [2]) [nM]
≥ 75 | C[C@@H](NC(=O)C(=O)N[C@H]1COc2ccc(C#CCN3CCN(CCOCCOCCOCCC(=O)Nc4cccc5c4CN(C4CCC(=O)NC4=O)C5=O)CC3)cc2N(C)C1=O)c1ccccc1 (mixture of isomers) [Example 164, N^1-((3S)-7-(3-(4-(2-(2-(2-(3-((2-(2,6-dioxopiperidin-3-yl)-1-oxoisoindolin-4-yl)amino)-3-oxopropoxy)ethoxy)ethoxy)ethyl)piperazin-1-yl)prop-1-yn-1-yl)-5-methyl-4-oxo-2,3,4,5-tetrahydrobenzo[b][1,4]oxazepin-3-yl)-N^2-((R)-1-phenylethyl)oxalamide] | A (A: ≥90%) | 100 to 500
≥ 75 | COc1ccc2c(c1)N(C)C(=O)[C@@H](NC(=O)C(=O)NCCc1ccccc1)CO2 [Example 8, (S)—N^1-(7-methoxy-5-methyl-4-oxo-2,3,4,5-tetrahydrobenzo[b][1,4]oxazepin-3-yl)-N^2-phenethyloxalamide] | A (A: ≥90%) | 100 to 500
≥ 75 | C=CCOc1ccc2c(c1)N(C)C(=O)[C@@H](NC(=O)C(=O)NCCc1ccccc1)CO2 [Example 9, (S)—N^1-(7-(allyloxy)-5-methyl-4-oxo-2,3,4,5-tetrahydrobenzo[b][1,4]oxazepin-3-yl)-N^2-phenethyl oxalamide] | A (A: ≥90%) | 100 to 500
≥ 75 | C#CCOc1ccc2c(c1)N(C)C(=O)[C@@H](NC(=O)C(=O)NCCc1ccccc1)CO2 [Example 10, (S)—N^1-(5-methyl-4-oxo-7-(prop-2-yn-1-yloxy)-2,3,4,5-tetrahydrobenzo[b][1,4]oxazepin-3-yl)-N^2-phenethyloxalamide] | A (A: ≥90%) | 100 to 500
≥ 75 | Cc1cccc(/C=C/c2ccc3c(c2)N(C)C(=O)[C@@H](NC(=O)C(=O)NCCc2ccccc2)CO3)c1 [Example 11, (S,E)-N^1-(5-methyl-7-(3-methylstyryl)-4-oxo-2,3,4,5-tetrahydrobenzo[b][1,4]oxazepin-3-yl)-N^2-phenethyloxalamide] | A (A: ≥90%) | < 100
50 to 74 | CN1C(=O)[C@@H](NC(=O)C(=O)NCCc2ccccc2F)COc2ccccc21 [Example 99, (S)—N^1-(2-fluorophenethyl)-N^2-(5-methyl-4-oxo-2,3,4,5-tetrahydrobenzo[b][1,4]oxazepin-3-yl)oxalamide] | B (B: 50-89%) | 
25 to 49 | CN1C(=O)[C@@H](NC(=O)C(=O)NCCOc2ccccc2)COc2ccccc21 [Example 103, (S)—N^1-(5-methyl-4-oxo-2,3,4,5-tetrahydrobenzo[b][1,4]oxazepin-3-yl)-N^2-(2-phenoxyethyl)oxalamide] |  | 500 to 2000
